{
  "source": "patent US20240148741A1",
  "about": "“FORMULATION FOR ORAL ADMINISTRATION, COMPRISING TRIAZINE DERIVATIVE” (priority 2021, published 2024)",
  "test": "Moisture sorption/desorption isotherm measurement (DVS)",
  "format": "physicochemical",
  "settings": "for change in mass when the humidity was changed (DVS): 0% to 95% RH, 25° C.",
  "protocol": "About 15 to 25 mg of a sample was weighed into a sample pan, and measurement was made. Measurement conditions are as follows. • Device: DVS Adventure manufactured by Surface Measurement Systems Ltd. • Measurement points: 0% to 95% RH every 5%, and 95% RH to 0% every 5% • Temperature: 25° C.\nRegarding the comparison of the X-ray powder analysis patterns before and after the DVS measurement, measurement was performed by the following method.\n• Measuring method: reflection method • Wavelength used: CuKα ray • Tube current: 200 mA • Tube voltage: 45 kV • Sampling plate: aluminum • X-ray incident angle: 2.5° • Sampling width: 0.02° • Detector: HyPix-3000 (two-dimensional detection mode)",
  "data": [
    {"molecule": "Cn1cnc(Cn2c(=O)[nH]/c(=N\\c3cc4cn(C)nc4cc3Cl)n(Cc3cc(F)c(F)cc3F)c2=O)n1", "values": [
      {"measurement": "change in mass when the humidity was changed (DVS)", "setting": "crystal of Example a (FIG. 6)", "value": "No substantial change in mass"},
      {"measurement": "change in mass when the humidity was changed (DVS)", "setting": "crystal of Step 5-2 of Example 1b (FIG. 18)", "value": "No substantial change in mass"},
      {"measurement": "crystalline form before and after the DVS measurement (X-ray powder patterns)", "setting": "crystal of Step 5-2 of Example 1b (FIG. 19)", "value": "did not change"}
    ]}
  ]
}
